This note sets out measurements from patent publication US12642791B2, “Inhibitors of lysyl oxidases” (UNIVERSITY OF SOUTH CAROLINA, priority 2021, dated 2026).

Like-named read-outs stand apart in the source and are kept apart here.

For test [1], the system named is MDA-MB-231 cells. The test is described as follows: Migration assay (RTCA CIM plate). It counts as cell-based, human. The following applies: 20 μM, 48 hours. As for the experimental part: FIG. 37. LOX inhibitors, 6232, 6403 and 6415, reduced the migration capacity of the TNBC cell lines. RTCA-CIM plate used to measure the real-time migration of MDA-MB-231 cells upon treatment with 20 μM of 6232, 6403 and 6415 for 48 hours. (* p<0.05; ** p<0.01)
RTCA CIM Plate was used to assess the migration capacity of the cells upon LOX inhibitor treatment according to manufacturer's instructions. Briefly, 160 μl of 10% FBS containing media was added into each bottom chamber/50 μl of FBS free media into upper chamber and incubated 1 hour at 37° C. After the background measurement, 5×10^4 cells were seeded in FBS-free media into upper chamber in the presence of LOX inhibitors or vehicle. After the 30 min incubation at RT, real time cell migration was recorded for 48 hours.

For the next test, the system named is HFF cells. The test is described as follows: Fibrosis assay (TGF-beta induced, alpha-SMA and fibronectin staining). It counts as cell-based, human. The following applies: 10 uM compound, 1 hour pretreatment, TGF-β 48 hours. The procedure: FIG. 40. […] 24 hours serum-starved HFF cells were pretreated with inhibitors 1 hours. Then, fibrosis was induced by […] of TGF-β for 48 hours in HFF cells. ALK5 (10 μM) inhibitor is used as a negative control. LOX inhibitors 6232, 6403 and 6415 were used at 10 uM concentration. HFF cells were stained with alpha-SMA and fibronectin primary antibodies. Nucleus of the cells was labeled with DAPI.
Human foreskin fibroblasts (HFF), see Li, M. et al. Icaritin inhibits skin fibrosis through regulating AMPK and Wnt/β-catenin signaling. Cell Biochemistry and Biophysics 79, 231-238 (2021), cells were seeded into μ-Slide 8-well glass bottom chambers (Ibidi, Germany). Next day, media of the cells were replaced with 0.5% FBS contain media and incubated with 24 hours. Then, cells were pretreated either with ALK5 inhibitor (Sellekchem, USA) or LOX inhibitors for 1 hour and cells were incubated with 10 ng/ml of TGF-beta (R&D Biosystems, USA) for 48 hours. Staining of the markers followed the same procedure described in the Immunofluorescence section above.

The test system of test [2] is cellular lysyl oxidase activity, ACHN. Nature of the test: Cell-based LOX activity in kidney cancer cell line. More on the design: species or system human. The following applies: uM range. As for the experimental part:
(§1) FIG. 38. Dose dependent inhibition of cellular LOX activity and growth inhibition in 3D upon treatment with 6232 and its analogs, 6403 and 6415.in ACHN cancer cell line. Inhibition of cell-based LOX activity in ACHN (A) and growth inhibition in collagen:matrigel (1:1) culture (B) cancer cell lines upon treatment with LOX inhibitors 6232, 6403 and 6415 (uM range). BAPN is used as a positive control (mM range) in 3D cell viability assay. Growth inhibition was measured by using 3D Cell Titer Glo kit.
(§2) For cell-based lysyl oxidase activity, fluorometric Lysly Oxidase Activity Assay Kit (Abcam, USA) was used according to manufacturer's instructions. Briefly, after the treatment, 50 μl of supernatant from each well was incubated with reagent mix and fluorescence measured in multimode-reader at Ex/Em=540/590 nm wavelength.

Test [3] has as its system ACHN kidney cancer cell line. The test is described as follows: Growth inhibition in 3D collagen:matrigel culture (3D Cell Titer Glo). The test is classed as cell-based, human. The following applies: collagen:matrigel (1:1), uM range. The procedure:
as §1
(§3) Collagen solution was prepared at a concentration of 0.5-1 mg/ml from the rat tail collagen I (Corning, USA) with a neutralization step including the addition of 1N NaOH solution. Cells were trypsinazed and resuspended in collagen:matrigel mix (1:1). 8×10^3 cells were seeded into 96-well or μ-Slide 8-well glass bottom chambers. After 1 hour of incubation at room temperature, media was added on top of the solidified collagen:matrigel mix. Drug treatments were done 12 hours after cell seeding.
In general terms: ATP-based viability assays read luminescence as a measure of living cells.

The test system of test [4] is cellular lysyl oxidase (LOX) activity, MDA-MB-231 cells. Nature of the test: Cell-based lysyl oxidase activity assay (Abcam kit). More on the design: species or system human.
Source text: As the available LOX inhibitors are either not very potent or have toxicity, the inventors developed a robust screening pipeline shown in FIG. 28 to identify potent and safe LOX-specific and pan-LOX inhibitors. Briefly, a high-throughput cell-based LOX activity (Abcam) screen (HTS) was done for more than 5,000 drug-like compounds from the EXPRESS-Pick diversified library (4,480 molecules, ChemBridge) and Tocriscreen library of bioactive compounds (1,280 compounds, Tocris), each at a single concentration of 10 μM. […] The toxic molecules were counter screened with cell cytotoxicity assay and filtered out.
FIGS. 34. […] IC50 for cellular lysyl oxidase activity upon treatment of MDA-MB-231 cells with different LOX inhibitors. uM=microM.
as §2

In test [5] the test system is MDA-MB-231 cells. Nature of the test: Doxorubicin chemosensitization in 3D collagen I culture. It counts as cell-based, human. The following applies: collagen I-embedded cells, combination with doxorubicin. As for the experimental part: as §3
(§4) Cells were embedded in type I collagen:matrigel mix as described above. Cells were grown in the presence of doxorubicin or LOX inhibitors alone or combination of LOX inhibitors with doxorubicin for 48 hours. After the treatment, cell viability was measured by using 3D Cell Titer Glo (Promega, USA) kit.

In a further test the test system is HCC1143. Described as above. The following applies: collagen I-embedded cells, combination with doxorubicin. The test is classed as cell-based, human. As for the experimental part: as §3, §4
Another test has as its system TM01278 PDX organoids. Nature of the test: PDX-derived TNBC organoids, combination with doxorubicin. It counts as cell-based, human. The following applies: combination with doxorubicin (50 nM) vs single agents, 9 days. The procedure:
FIG. 36. Combination of 6403 and 6415 with doxorubicin reduced the growth of the TNBC organoids. A. Representative images of TM01278 PDX organoids at day 0 and day 9 after treatment with doxorubicin (50 nM) and 6403 and 6415 treatments, alone or in combination. B. Quantification of organoid diameter and viability upon combination therapy for 9 days.
TNBC organoids were established from a fresh surgical tissue by cutting the tumor into small pieces and incubating in collagenase A solution with ROCK inhibitor on a shaker at 37° C. for 30 minutes. The collagenase activity was inhibited by adding FBS, and pipetting was done to ensure the formation of almost a single cell solution. After several washes with PBS, the cell pellet was dissolved in matrigel. Breast organoid media containing ROCK and GSK inhibitors was added after the Matrigel solidified. See, Sachs, N. et al. A Living Biobank of Breast Cancer Organoids Captures Disease Heterogeneity. Cell 172, 373-386 e310, doi:10.1016/j.cell.2017.11.010 (2018). For drug testing studies, organoids were disrupted to single cells by digesting at 37° C. for 30 mins with TrypLE (A1217701, Gibco, NY, USA) in the presence of 10 μM Rock inhibitor (s1049, Selleckchem, TX, USA). Organoids were plated into wells of 96 well plate (20.000 cells/well) on a collagen-coated surface with media containing 2% Matrigel (356252, Corning, NY, USA). Drugs were added 72 hours after plating. Cells were grown in the presence of drug or vehicle for 9 days, and photos were taken from each well to show the organoid size. Organoid viability was measured by using 3D Cell Titer Glo (Promega, USA) kit.

The mark [6] stands for this setting: read-out: cellular LOX activity.

As for `Cc1nc(N)sc1-c1csc(Nc2ccc([N+](=O)[O-])cc2)n1` [compound 6232, 4-methyl-5-[2-(4-nitroanilino)thiazol-4-yl]thiazol-2-amine], the migration capacity entry in the test with MDA-MB-231 cells [1] is “inhibited the migration capacity”. Besides, the “TGF-β-induced fibrosis (alpha-SMA, fibronectin staining)” value (from here on “TGF-β-induced fibrosis”) in the test with HFF cells was “inhibited the TGF-β-induced fibrosis”. Moreover, the “cellular lysyl oxidase activity inhibition” value in test [2] was “dose dependent cellular lysyl oxidase activity inhibition”. In addition, the “cell viability in 3D culture” value in test [3] is reported as “decrease in cell viability in 3D culture”. The “cellular lysyl oxidase inhibition compared to BAPN” value in test [4] is given as “more potent”.

As to `Cc1nc(N)sc1-c1csc(N(C)c2ccc(O)cc2)n1` [compound 6415, 4-[[4-(2-amino-4-methyl-thiazol-5-yl)thiazol-2-yl]-methyl-amino]phenol], the migration capacity result in the test with MDA-MB-231 cells [1] is on record as “inhibited the migration capacity”. In the test on MDA-MB-231 cells [5], the doxorubicin sensitization entry was “led to doxorubicin sensitization”. Besides, in the test with HCC1143, the doxorubicin sensitization result is “led to doxorubicin sensitization”. Further, in the test on TM01278 PDX organoids, the organoid size result was “significantly decreased organoid size” and the organoid viability result is on record as “significantly decreased”. The “TGF-β-induced fibrosis” value in the test with HFF cells is listed as “inhibited the TGF-β-induced fibrosis”. Also, the “cellular lysyl oxidase activity inhibition” value in test [2] was “dose dependent cellular lysyl oxidase activity inhibition”. Also, in test [3], the “cell viability in 3D culture” value is given as “decrease in cell viability in 3D culture”. For the same compound, the “cellular lysyl oxidase inhibition compared to BAPN” value in test [4] is listed as “more potent”. The IC50 in test [4] (setting [6]) is 3.5 µM.

For the compound `CC(=O)Nc1ccc(Nc2nc(-c3sc(N)nc3C)cs2)cc1` [compound 6403, N-[4-[[4-(2-amino-4-methyl-thiazol-5-yl)thiazol-2-yl]amino]phenyl]acetamide], the migration capacity result in the test on MDA-MB-231 cells [1] is reported as “inhibited the migration capacity”. The doxorubicin sensitization result in the test with MDA-MB-231 cells [5] and with HCC1143 was “led to doxorubicin sensitization” throughout. Besides, the organoid size entry with TM01278 PDX organoids is “significantly decreased organoid size”. Further, the organoid viability entry in the test on TM01278 PDX organoids is “significantly decreased”. For the same compound, the “TGF-β-induced fibrosis” value in the test with HFF cells is “inhibited the TGF-β-induced fibrosis”. The “cellular lysyl oxidase activity inhibition” value in test [2] is recorded as “dose dependent cellular lysyl oxidase activity inhibition”. The “cell viability in 3D culture” value in test [3] is on record as “decrease in cell viability in 3D culture”. Further, the “cellular lysyl oxidase inhibition compared to BAPN” value in test [4] is listed as “more potent”. For the same compound, the IC50 in test [4] (read-out: IC50 for cellular lysyl oxidase inhibition) and in test [4] (setting [6]) was 1.3 µM throughout.
